Assay results taken from patent publication US20070292512A1, “Solid Oral Dosage Form Containing an Enhancer” (priority 2006, published 2007).
Entries after “also recorded” stand apart in the source; their conditions may differ.

How the values were obtained:
Caco-2 monolayers [1] = test: 3H-TRH transepithelial transport (Papp) in Caco-2 monolayers; assay type: in vitro ADME; conditions: sodium salts at concentrations of Table 1
Description: (§1) Cell Culture: Caco-2 cells were cultured in Dulbecco's Modified Eagles Medium (DMEM) 4.5 g/L glucose supplemented with 1% (v/v) non-essential amino acids; 10% fetal calf serum and 1% penicillin/streptomycin. […] The cells were grown and expanded in standard tissue culture flasks and were passaged once they attained 100% confluence. The Caco-2 cells were then seeded on polycarbonate filter inserts (Costar; 12 mm diameter, 0.4 μm pore size) at a density of 5×10^5 cells/cm^2 and incubated in six well culture plates with a medium change every second day. Confluent monolayers between day 20 and day 30 seeding on filters and at passages 30-40 were used throughout these studies.
(§2) The transport experiments were performed in Hank's Balanced Salt Solution (HBSS) containing 25 mM N-[2-hydroxyethyl]-piperazine-N′-[2-ethanesulfonic acid] (HEPES) buffer, pH 7.4 at 37° C. Due to variations in solubilities, various concentrations of the different MCFA sodium salts and various apical buffers were used as shown in Table 1. In all cases the basolateral chamber contained regular HBSS+HEPES.
(§3) After removing the cell culture medium, the monolayers were placed in wells containing pre-warmed HBSS (37° C.); 1 ml apically and 2 ml basolaterally. Monolayers were incubated at 37° C. for 30 minutes. Then at time zero, apical HBSS was replaced with the relevant apical test solution containing the radio-labeled compounds with and without the enhancer compound. […] The plates were placed on an orbital shaker in an incubator (37° C.). […] At each 30-minute interval, each insert was transferred to a new well containing 2 ml fresh pre-warmed HBSS. […] Mean values for ^3H-TRH concentrations were calculated for the apical and basolateral solutions at each time point.

Caco-2 monolayers [2] = test: TEER in Caco-2 monolayers; assay type: cell-based; conditions: sodium salts at concentrations of Table 1, with 3H-TRH, over 2 hours
Description: as §1, §2, §3

[3] = Closed loop rat model, intraduodenal TRH with enhancer, serum TRH; assay type: in vivo, Male Wistar rats; conditions: intraduodenal bolus 500 or 1000 μg TRH with 35 mg enhancer
Description: Male Wistar rats (weight range 250 g-350 g) were anaesthetized with ketamine hydrochloride/acepromazine. […] All intraduodenal dose volumes (for samples and control) were 1 ml/kg. The proximal end of the segment was ligated, and the loop was sprayed with isotonic saline (37° C.) to provide moisture and then replaced in the abdominal cavity avoiding distension. The incision was closed with surgical clips. A group of animals were administered TRH in PBS (100 μg in 0.2 ml) by subcutaneous injection as a reference.

[4] = Closed-loop rat segment, intraileal USP heparin, APTT response; assay type: in vivo; conditions: USP heparin 1000 iu intraileal, sodium caprate 10 and 35 mg
Description: APTT measurements were taken at various time points.

anti-factor Xa activity [5] = test: Closed-loop rat segment, intraileal USP heparin, anti-factor Xa response; assay type: in vivo; conditions: USP heparin 1000 iu
anti-factor Xa activity [6] = test: Dog study of oral heparin tablets, anti-factor Xa; assay type: in vivo; conditions: IR formulations, equivalent dose of heparin, dogs
Description: Tablets from batches 3, 7 and 15 in Tables 5 and 6 above were dosed orally to groups of five dogs in a single dose crossover study. […] Blood samples for anti-factor Xa analysis were collected from the jugular vein at various time points.

[7] = dog, in vivo
Description: Beagle dogs (10-15 Kg) were sedated with medetomidine (80 μg/kg) and an endoscope was inserted via the mouth, esophagus, and stomach into the duodenum. The test solutions (10 ml) comprising leuprolide acetate (Mallinckrodt Inc, St. Louis, Mo.) with or without enhancer reconstituted in deionized water were administered intraduodenally via the endoscope. Following removal of the endoscope, sedation was reversed using atipamezole (400 μg/kg). The parenteral reference solutions comprising 1 mg Leuprolide reconstituted in 0.5 ml sterile water were administered intravenously and subcutaneously respectively.

[8] = cited from earlier work
HDAC4 = HDAC4 (Homo sapiens, UniProt P56524); conditions: cited from earlier work
HDAC6 = conditions: cited from earlier work
HDAC = conditions: compared to romidepsin; cited from earlier work
HDAC1 = HDAC1 (Homo sapiens, UniProt Q13547); conditions: range stated for each enzyme; cited from earlier work
in vivo = test: in vivo; parameters: species or system beagle dogs; conditions: beagle, dog
Description: The study was a single dose crossover study using from 2 to 5 dogs. Fasted animals were dosed weekly with an intravenous dose (reference) or one of three experimental romidepsin formulations administered directly into the duodenum via a surgically implanted cannula. In all cases the administered dose was 0.1 mg/kg body weight. Blood samples were obtained at selected time intervals post dosing and plasma was shipped to Japan Clinical Laboratories (JCL) for romidepsin analyses. Upon receipt of bioanalytical data from JCL, the individual animal plasma data were loaded into an Excel spreadsheet (Microsoft® Office Excel 2003) and the following pharmacokinetic parameters were calculated from the concentration-time data for each subject: Cmax, Tmax, T1/2, AUC(0-t) and % Bioavailability (% F). Pharmacokinetic parameters were calculated using macros written for Excel (Usansky et al., PK Functions for Microsoft Excel (1999) available at: www.boomer.org/[…].doc).

[9] = system: human tumor xenografts and murine tumors; conditions: human tumor xenografts and murine tumors in mouse models; cited from earlier work

Chain of HDAC4 (P56524 whole entry, species assumed): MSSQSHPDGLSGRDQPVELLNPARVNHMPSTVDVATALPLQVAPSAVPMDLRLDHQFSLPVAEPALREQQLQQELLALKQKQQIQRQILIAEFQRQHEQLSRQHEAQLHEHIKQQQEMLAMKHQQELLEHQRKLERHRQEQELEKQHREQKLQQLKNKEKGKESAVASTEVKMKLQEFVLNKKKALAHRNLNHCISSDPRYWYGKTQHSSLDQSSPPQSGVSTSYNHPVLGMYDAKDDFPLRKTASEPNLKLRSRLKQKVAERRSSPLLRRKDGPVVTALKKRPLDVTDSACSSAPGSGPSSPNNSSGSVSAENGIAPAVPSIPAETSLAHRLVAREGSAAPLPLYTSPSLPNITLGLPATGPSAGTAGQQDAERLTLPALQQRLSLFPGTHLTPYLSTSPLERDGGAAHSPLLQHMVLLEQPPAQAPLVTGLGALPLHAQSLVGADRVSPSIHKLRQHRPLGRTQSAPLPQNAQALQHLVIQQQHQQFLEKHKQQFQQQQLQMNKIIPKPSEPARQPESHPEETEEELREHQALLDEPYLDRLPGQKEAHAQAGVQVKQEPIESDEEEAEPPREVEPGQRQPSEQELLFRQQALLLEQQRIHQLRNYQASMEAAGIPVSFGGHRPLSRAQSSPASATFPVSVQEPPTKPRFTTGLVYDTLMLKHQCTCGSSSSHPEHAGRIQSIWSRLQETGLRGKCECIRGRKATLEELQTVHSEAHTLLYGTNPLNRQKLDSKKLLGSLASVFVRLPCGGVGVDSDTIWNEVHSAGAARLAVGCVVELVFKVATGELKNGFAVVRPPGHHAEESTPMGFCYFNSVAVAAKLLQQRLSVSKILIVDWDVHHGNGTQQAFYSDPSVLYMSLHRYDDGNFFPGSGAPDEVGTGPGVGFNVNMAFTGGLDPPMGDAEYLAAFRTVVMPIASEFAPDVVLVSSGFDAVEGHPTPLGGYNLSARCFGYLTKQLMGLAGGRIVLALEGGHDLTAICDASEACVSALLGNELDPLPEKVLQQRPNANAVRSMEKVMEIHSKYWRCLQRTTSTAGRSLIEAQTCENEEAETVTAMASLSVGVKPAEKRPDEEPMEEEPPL
Chain of HDAC1 (Q13547 whole entry): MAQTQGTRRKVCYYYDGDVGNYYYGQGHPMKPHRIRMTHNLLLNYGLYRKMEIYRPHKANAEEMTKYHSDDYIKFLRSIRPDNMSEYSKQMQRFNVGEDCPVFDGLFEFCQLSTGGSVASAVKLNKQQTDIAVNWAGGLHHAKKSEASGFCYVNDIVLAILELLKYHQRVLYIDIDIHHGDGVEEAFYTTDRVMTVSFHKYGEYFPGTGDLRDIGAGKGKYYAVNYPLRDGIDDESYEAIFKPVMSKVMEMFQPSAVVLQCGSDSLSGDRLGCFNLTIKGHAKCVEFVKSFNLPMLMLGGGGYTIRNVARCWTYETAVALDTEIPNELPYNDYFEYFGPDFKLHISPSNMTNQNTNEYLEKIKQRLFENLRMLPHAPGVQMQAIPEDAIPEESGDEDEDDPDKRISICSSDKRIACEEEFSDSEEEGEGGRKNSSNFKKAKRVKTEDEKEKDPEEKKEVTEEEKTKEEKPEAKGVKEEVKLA

CCCCCCCCCCCC(=O)[O-].[Na+] [Batch C12, sodium laurate]
Papp for 3H-TRH compared to the control (Caco-2 monolayers [1]): considerable increases
effect on TEER compared to the control (Caco-2 monolayers [2]): some cell damage (reduction in TEER)

CCCCCCCCCCCCCC(=O)[O-].[Na+] [Batch C14]
Papp for 3H-TRH compared to the control (Caco-2 monolayers [1]): considerable increases
effect on TEER compared to the control (Caco-2 monolayers [2]): minimal reduction in TEER

CCCCCCCCCCCCCCCCCC(=O)[O-].[Na+] [Batch C18]
effect on TEER compared to the control (Caco-2 monolayers [2]): minimal reduction in TEER

CCCCCCCC(=O)[O-].[Na+] [NaC8, sodium caprylate]
serum levels of TRH over the control TRH solution [3]: significantly increases the serum levels of TRH

CCCCCCCCCC(=O)[O-].[Na+] [NaC10, sodium caprate]
Papp for 3H-TRH compared to the control (Caco-2 monolayers [1]): considerable increases
heparin absorption by APTT response vs control heparin solution [4]: significant increase in absorption
anti-factor Xa activity relative to control heparin solution (anti-factor Xa activity [5]; enhancer 10 mg dose): significant increase in anti-factor Xa activity
anti-factor Xa activity relative to control heparin solution (anti-factor Xa activity [5]; enhancer 35 mg dose): significant increase in anti-factor Xa activity
serum levels of TRH over the control TRH solution [3]: significantly increases the serum levels of TRH
anti-factor Xa response, NaC10 versus NaC8 enhancer (anti-factor Xa activity [6]): larger anti-factor Xa response
effect on TEER compared to the control (Caco-2 monolayers [2]): minimal reduction in TEER

CCNC(=O)[C@@H]1CCCN1C(=O)[C@H](CCCNC(=N)N)NC(=O)[C@H](CC(C)C)NC(=O)[C@@H](CC(C)C)NC(=O)[C@H](Cc1ccc(O)cc1)NC(=O)[C@H](CO)NC(=O)[C@H](Cc1c[nH]c2ccccc12)NC(=O)[C@H](Cc1c[nH]cn1)NC(=O)[C@@H]1CCC(=O)N1 [leuprolide, leuprolide acetate]
systemic delivery of leuprolide on coadministration with enhancer [7]: considerable enhancer dose dependent enhancement
systemic delivery of leuprolide without enhancer [7]: negligible

C/C=C1\NC(=O)[C@@H](CS)NC(=O)[C@@H](C(C)C)NC(=O)C[C@@H](/C=C/CCS)OC(=O)[C@H](C(C)C)NC1=O [redFK]
stability in medium and serum [8]: rapid inactivation
inhibitory effect against HDAC4 (HDAC4; low nanomolar concentrations): relatively weak
inhibitory effect against HDAC6 (HDAC6; low nanomolar concentrations): relatively weak; also recorded: almost insensitive
inhibiting in vivo HDAC activity (HDAC): less active compared to romidepsin

C/C=C1\NC(=O)[C@H]2CSSCC/C=C/[C@H](CC(=O)N[C@H](C(C)C)C(=O)N2)OC(=O)[C@H](C(C)C)NC1=O [romidepsin, (1S,4S,10S,16E,21R)-7-[(2Z)-ethylidene]-4,2,1-diisopropyl-2-oxa-12,13-dithia-5,8,20,23-tetraazabicyclo[8.7.6]tricos-16-ene-3,6,9,19,22-pentanone]
times weaker than redFK in inhibiting HDAC1 (HDAC1): 17-23 times
stability in medium and serum [8]: more stable than redFK
bioavailability (in vivo): ≤ 28%
times weaker than redFK in inhibiting HDAC4 (HDAC4; range stated for each enzyme): 17-23 times
times weaker than redFK in inhibiting HDAC6 (HDAC6; range stated for each enzyme): 17-23 times
in vivo antitumor activity [9]: in vivo antitumor activity
